From patent US20100279997A1, “ANALGESIC THAT BINDS FILAMIN A” (priority 2009, published 2010)
Where two headings read alike, the source gives them in different places.

Tests used:
[1] = target: T1, μ opiate receptor (MOR) (Rattus norvegicus, UniProt P33535); test: MOR agonist activity, [35S]GTPγS binding assay using striatal membranes; assay type: biochemical; details: for [35S]GTPγS binding to Gαo, FLNA-binding compound as agonist 0.1 μM: 0.1 μM compound; for [35S]GTPγS binding to Gαo, FLNA-binding compound as agonist 0.1 μM / [35S]GTPγS binding to Gαo, FLNA-binding compound as agonist 1 μM: striatal membranes; for [35S]GTPγS binding to Gαo, FLNA-binding compound as agonist 1 μM + BFNA: 1 μM compound + 1 μM β-funaltrexamine; for [35S]GTPγS binding to Gαo, FLNA-binding compound as agonist 1 μM: 1 μM compound; for % DAMGO + BFNA: relative to DAMGO + BFNA; for % DAMGO (0.1 μM) / % DAMGO (1 μM): relative to DAMGO
T1 construct: from tissue; host or cells: striatal tissue (membrane preparation)
Method: To assess the μ opiate receptor (MOR) agonist activity of positive compounds from the FLNA screening, compounds were tested in a [^35S]GTPγS binding assay using striatal membranes.
Striatal tissue was homogenized in 10 volumes of ice cold 25 mM HEPES buffer, pH 7.4, which contained 1 mM EGTA, 100 mM sucrose, 50 μg/ml leupeptin, 0.04 mM PMSF, 2 μg/ml soybean trypsin inhibitor and 0.2% 2-mercaptoethanol. The homogenates were centrifuged at 800×g for 5 minutes and the supernatants were centrifuged at 49,000×g for 20 minutes. The resulting pellets were suspended in 10 volume of reaction buffer, which contained 25 mM HEPES, pH 7.5, 100 mM NaCl, 50 μg/ml leupeptin, 2 μg/ml soybean trypsin inhibitor, 0.04 mM PMSF and 0.02% […].
The resultant striatal membrane preparation (200 μg) was admixed and maintained (incubated) at 30° C. for 5 minutes in reaction buffer as above that additionally contained 1 mM MgCl2 and 0.5 nM [^35S]GTPγS (0.1 μCi/assay, PerkinElmer Life and Analytical Sciences) in a total volume of 250 μl and continued for 5 minutes in the absence or presence of 0.1-10 μM of an assayed compound of interest. The reaction was terminated by dilution with 750 μl of ice-cold reaction buffer that contained 20 mM MgCl2 and 1 mM EGTA and immediate centrifugation at 16,000×g for 5 minutes.
The resulting pellet was solubilized by sonicating for 10 seconds in 0.5 ml of immunoprecipitation buffer containing 0.5% digitonin, 0.2% sodium cholate and 0.5% NP-40. Normal rabbit serum (1 μl) was added to 1 ml of lysate and incubated at 25° C. for 30 minutes. Nonspecific immune complexes were removed by incubation with 25 μl of protein A/G-conjugated agarose beads at 25° C. for 30 minutes followed by centrifugation at 5,000×g at 4° C. for 5 minutes. The supernatant was divided and separately incubated at 25° C. for 30 minutes with antibodies raised against Gao proteins (1:1,000 dilutions).
The immunocomplexes so formed were collected by incubation at 25° C. for 30 minutes with 40 μl of agarose-conjugated protein A/G beads and centrifugation at 5,000×g at 4° C. for 5 minutes. The pellet was washed and suspended in buffer containing 50 mM Tris-HCl, pH 8.0, and 1% NP-40. The radioactivity in the suspension was determined by liquid scintillation spectrometry. […] DAMGO (H-Tyr-D-Ala-Gly-N-MePhe-Gly-OH; 1 or 10 μM) was used as a positive control.

[2] = Mouse hot-water tail-flick test; assay type: in vivo
Method: The mouse “tail flick” test was used to assay the relative antinociceptive activity of compositions containing a compound to be assayed. This assay was substantially that disclosed by Xie et al., 2005 J. Neurosci 25:409-416.
The mouse hot-water tail-flick test was performed by placing the distal third of the tail in a water bath maintained at 52° C. The latency until tail withdrawal from the bath was determined and compared among the treatments. A 10 second cutoff was used to avoid tissue damage. Data are converted to percentage of antinociception by the following formula: (response latency−baseline latency)/(cutoff−baseline latency)×100 to generate dose-response curves. […] Relative potency was determined as a ratio of the A50 values.
To assess tolerance to the antinociceptive effect, the compound was administered twice daily for 7 days at an A90 dose (dose that results in a 90% antinociceptive effect in the 52° C. warm-water tail-flick test), and the tail-flick test was performed daily after the a.m. dose.

[3] = target: Bn-VAKGL pentapeptide of filamin A (FLNA) (Homo sapiens, UniProt P21333); test: FITC-NLX-based FLNA screening assay (FLNA peptide binding assay)
Method: The final assay volume is 100 μl.
Compounds are tested in triplicate or quadruplicate.

[4] = test system: MOR coupling to Gαs/olf and Gαo; test: Relative Gs/Go switching, MOR-G protein coupling in organotypic striatal slice cultures; assay type: cell-based; details: rat striatal slices
Method: Striatal slices ([…]) were prepared using a McIlwain tissue chopper (Mickle Laboratory Engineering Co., Surrey, UK). Slices were carefully transferred to sterile, porous culture inserts (0.4 μm, Millicell-CM) using the rear end of a glass Pasteur pipette. Each culture insert unit contained 2 slices and was placed into one well of the 12-well culture tray. […] The pH value was adjusted to 7.2 with HEPES buffer.
Cultures were first incubated for 2 days to minimize the impact of injury from slice preparation. Incubator settings throughout the experiment were 36° C. with 5% CO2.
Slices were returned to culture medium with normal serum after each drug exposure. Tissues were harvested 16 hours after the last drug exposure by centrifugation.
For determination of MOR-G protein coupling, slices were homogenized to generate synaptic membranes. […] Following centrifugation, striatal membrane lysates were immunoprecipitated with immobilized anti-Gαs/olf or -Gαo conjugated with immobilized protein G-agarose beads. The level of MOR in anti-Gαs/olf or -Gαo immunoprecipitates was determined by Western blotting using specific anti-MOR antibodies.

[5] = target: filamin A (Homo sapiens, UniProt P21333); details: Wang et al, 2008 PLoS One 3:e1554; read-out: affinity of binding to filamin A; cited from earlier work
[6] = read-out: Percent inhibition of FITC-NLX binding, 0.01 μM
[7] = read-out: Percent inhibition of FITC-NLX binding, 0.1 μM
[8] = read-out: Percent inhibition of FITC-NLX binding, 1 μM
[9] = read-out: Percent inhibition of FITC-NLX binding, 0.01 μM, 0.01 μM compound, 10 nM FITC-NLX
[10] = read-out: Percent inhibition of FITC-NLX binding, 0.1 μM, 0.1 μM compound, 10 nM FITC-NLX
[11] = read-out: Percent inhibition of FITC-NLX binding, 1 μM, 1 μM compound, 10 nM FITC-NLX

T1 sequence (P33535 whole entry): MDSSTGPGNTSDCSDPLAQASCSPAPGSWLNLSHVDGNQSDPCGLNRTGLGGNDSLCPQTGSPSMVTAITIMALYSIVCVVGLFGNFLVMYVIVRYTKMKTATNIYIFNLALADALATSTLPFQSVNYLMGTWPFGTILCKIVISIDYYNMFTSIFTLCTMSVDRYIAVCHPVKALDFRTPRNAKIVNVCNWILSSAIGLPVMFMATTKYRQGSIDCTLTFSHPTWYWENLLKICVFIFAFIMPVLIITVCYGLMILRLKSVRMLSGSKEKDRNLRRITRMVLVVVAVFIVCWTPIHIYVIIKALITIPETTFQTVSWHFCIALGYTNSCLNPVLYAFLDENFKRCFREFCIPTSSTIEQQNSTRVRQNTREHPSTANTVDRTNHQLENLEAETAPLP
filamin A, sequence (P21333 whole entry): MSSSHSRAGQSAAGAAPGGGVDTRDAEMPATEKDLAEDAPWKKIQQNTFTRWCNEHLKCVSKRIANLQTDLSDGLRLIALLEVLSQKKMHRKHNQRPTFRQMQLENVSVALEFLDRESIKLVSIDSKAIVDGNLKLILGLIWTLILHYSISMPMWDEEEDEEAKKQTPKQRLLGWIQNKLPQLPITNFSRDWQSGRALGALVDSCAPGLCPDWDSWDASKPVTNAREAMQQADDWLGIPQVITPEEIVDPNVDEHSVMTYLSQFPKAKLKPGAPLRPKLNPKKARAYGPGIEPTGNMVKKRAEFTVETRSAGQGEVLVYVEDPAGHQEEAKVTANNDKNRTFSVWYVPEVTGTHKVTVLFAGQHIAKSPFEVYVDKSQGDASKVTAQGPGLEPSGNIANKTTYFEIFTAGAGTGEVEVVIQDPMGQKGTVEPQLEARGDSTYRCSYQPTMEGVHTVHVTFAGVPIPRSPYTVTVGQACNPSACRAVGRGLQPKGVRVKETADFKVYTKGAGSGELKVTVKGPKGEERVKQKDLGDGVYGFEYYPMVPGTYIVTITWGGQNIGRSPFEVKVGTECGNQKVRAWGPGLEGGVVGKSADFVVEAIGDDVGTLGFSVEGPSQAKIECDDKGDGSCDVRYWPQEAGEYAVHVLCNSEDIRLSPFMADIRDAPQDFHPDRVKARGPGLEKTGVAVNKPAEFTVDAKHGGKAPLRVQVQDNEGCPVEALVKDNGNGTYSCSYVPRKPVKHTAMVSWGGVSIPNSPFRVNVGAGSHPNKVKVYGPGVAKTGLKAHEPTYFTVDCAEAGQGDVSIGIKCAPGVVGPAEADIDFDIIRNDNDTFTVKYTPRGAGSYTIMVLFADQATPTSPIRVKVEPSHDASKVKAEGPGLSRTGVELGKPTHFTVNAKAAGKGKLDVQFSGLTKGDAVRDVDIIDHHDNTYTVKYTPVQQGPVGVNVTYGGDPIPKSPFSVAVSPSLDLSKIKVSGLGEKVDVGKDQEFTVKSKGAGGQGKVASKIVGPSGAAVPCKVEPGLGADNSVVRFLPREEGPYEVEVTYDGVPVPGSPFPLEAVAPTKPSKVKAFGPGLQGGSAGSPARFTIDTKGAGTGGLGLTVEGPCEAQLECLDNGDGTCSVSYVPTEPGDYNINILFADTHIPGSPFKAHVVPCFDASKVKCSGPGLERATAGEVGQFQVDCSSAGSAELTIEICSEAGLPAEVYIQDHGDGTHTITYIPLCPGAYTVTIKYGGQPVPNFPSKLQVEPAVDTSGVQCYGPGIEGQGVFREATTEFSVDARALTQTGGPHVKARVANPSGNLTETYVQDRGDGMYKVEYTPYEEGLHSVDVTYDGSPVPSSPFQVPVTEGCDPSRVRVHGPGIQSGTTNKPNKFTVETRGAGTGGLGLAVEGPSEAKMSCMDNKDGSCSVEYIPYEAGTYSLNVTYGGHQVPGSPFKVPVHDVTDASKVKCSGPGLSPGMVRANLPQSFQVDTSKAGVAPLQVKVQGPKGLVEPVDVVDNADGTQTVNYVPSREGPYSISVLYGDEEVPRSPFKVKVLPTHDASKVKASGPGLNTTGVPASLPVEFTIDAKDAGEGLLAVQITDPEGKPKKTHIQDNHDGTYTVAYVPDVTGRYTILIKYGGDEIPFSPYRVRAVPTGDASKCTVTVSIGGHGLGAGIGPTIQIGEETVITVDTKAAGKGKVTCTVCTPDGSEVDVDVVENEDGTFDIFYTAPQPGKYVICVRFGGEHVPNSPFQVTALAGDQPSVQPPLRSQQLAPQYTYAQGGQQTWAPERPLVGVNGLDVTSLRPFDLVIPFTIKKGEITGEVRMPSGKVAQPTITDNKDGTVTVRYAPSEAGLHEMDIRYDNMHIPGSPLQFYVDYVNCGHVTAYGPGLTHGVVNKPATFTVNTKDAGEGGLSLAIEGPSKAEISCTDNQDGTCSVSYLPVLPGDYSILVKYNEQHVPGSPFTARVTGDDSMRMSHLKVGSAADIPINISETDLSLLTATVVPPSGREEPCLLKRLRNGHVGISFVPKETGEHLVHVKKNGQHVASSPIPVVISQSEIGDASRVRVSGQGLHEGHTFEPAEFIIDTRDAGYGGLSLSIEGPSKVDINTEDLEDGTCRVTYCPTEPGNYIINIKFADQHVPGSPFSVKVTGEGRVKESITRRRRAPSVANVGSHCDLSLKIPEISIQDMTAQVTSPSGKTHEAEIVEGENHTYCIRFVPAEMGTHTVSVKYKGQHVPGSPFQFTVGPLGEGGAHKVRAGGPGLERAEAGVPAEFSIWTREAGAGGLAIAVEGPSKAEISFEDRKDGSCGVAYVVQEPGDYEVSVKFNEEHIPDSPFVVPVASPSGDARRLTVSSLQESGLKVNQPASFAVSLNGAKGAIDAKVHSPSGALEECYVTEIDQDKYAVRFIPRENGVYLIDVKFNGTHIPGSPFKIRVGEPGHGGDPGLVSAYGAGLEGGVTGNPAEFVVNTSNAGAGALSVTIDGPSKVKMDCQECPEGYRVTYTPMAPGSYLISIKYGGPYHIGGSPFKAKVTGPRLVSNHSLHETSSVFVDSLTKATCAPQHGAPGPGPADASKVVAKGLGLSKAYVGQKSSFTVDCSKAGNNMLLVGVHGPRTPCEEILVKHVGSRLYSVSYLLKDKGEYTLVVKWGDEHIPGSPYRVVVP

SMILES | [35S]GTPγS binding to Gαo, FLNA-binding compound as agonist 0.1 μM [1] [%] | [35S]GTPγS binding to Gαo, FLNA-binding compound as agonist 1 μM + BFNA [1] [%] | [35S]GTPγS binding to Gαo, FLNA-binding compound as agonist 1 μM [1] [%] | % DAMGO + BFNA [1] [%] | % DAMGO (0.1 μM) [1] [%] | % DAMGO (1 μM) [1] [%] | mean maximum antinociception ([2]; oral, 56 mg/kg) | also measured
CC1CCC(C(C)C)C(OCC(O)CN2CCc3ccccc32)C1 (centres unmarked) [Compound A0065] | 197.6 | 44.9 | 266.8 | 112.5 | 126.6 | 115.7 | about 25% | inhibition at 0.01 µM [3, 6]: 38.7%; inhibition at 0.1 µM [3, 7]: 50%; inhibition at 1 µM [3, 8]: 50.8%
OC(COc1ccccc1Br)CN1CCN(CCN2CCOCC2)CC1 (centres unmarked) [Compound A0064] | 219.2 | 43.7 | 262.9 | 126.7 | 127.4 | 119.7 |  | mean maximum antinociception ([2]; 32 mg/kg): about 50%; time of maximum antinociception ([2]; 32 mg/kg): 30 to 50 min; inhibition at 0.01 µM [3, 9]: 41.8%; inhibition at 0.1 µM [3, 10]: 46.2%; inhibition at 1 µM [3, 11]: 53.6%
CC1CCC(C(C)C)C(OCC(O)CN2CC(C)OC(C)C2)C1 (centres unmarked) [Compound 3333] |  |  |  |  |  |  |  | [35S]GTPγS binding to Gαo, FLNA-binding compound as agonist 0.1 μM ([1]; listed as A3333): 170.7%; [35S]GTPγS binding to Gαo, FLNA-binding compound as agonist 1 μM + BFNA ([1]; listed as A3333): 65.9%; [35S]GTPγS binding to Gαo, FLNA-binding compound as agonist 1 μM ([1]; listed as A3333): 328.3%; Go (MOR in anti-Gαo immunoprecipitate), average ([4]; 10 μM): 1426.3; Gs/Go-Coupled Ratio, average ([4]; 10 μM): 0.761; Gs/olf (MOR in anti-Gαs/olf immunoprecipitate), average ([4]; 10 μM): 1079.0; Go (MOR in anti-Gαo immunoprecipitate), average ([4]; 100 μM): 1418.8; Gs/Go-Coupled Ratio, average ([4]; 100 μM): 0.756; Gs/olf (MOR in anti-Gαs/olf immunoprecipitate), average ([4]; 100 μM): 1064.8
CC1CN(CC(O)COc2cccc(F)c2)CC(C)O1 (centres unmarked) [Compound A0049] | 232.3 | 107.1 | 370.3 |  |  |  | about 45% | 
CC1CN(CC(O)COc2ccc(Br)c(F)c2)CC(C)O1 (centres unmarked) [Compound A0041] | 212.7 | 50.6 | 283.6 |  |  |  |  | mean maximum antinociception ([2]; 32 mg/kg): about 12%; time of maximum antinociception ([2]; 32 mg/kg): 10 to 15 min
CC1CCC(C(C)C)C(OCC(O)CN2CCN(CCN3CCOCC3)CC2)C1 (centres unmarked) [Compound A0011] | 236.3 | 47.0 | 287.5 |  |  |  | about 38% | 
C=CCN1CC[C@]23c4c5ccc(O)c4O[C@H]2C(=O)CC[C@@]3(O)[C@H]1C5 [NLX, naloxone] |  |  |  |  |  |  |  | Kd [5]: ~4 pM
COc1ccc(OCC(O)CN2CCCc3ccccc32)cc1 (centres unmarked) [Compound A0067] | 170.8 | 33.9 | 254.4 | 98.3 | 99.2 | 115.8 |  | inhibition at 0.01 µM [3, 9]: 32.7%; inhibition at 0.1 µM [3, 10]: 39.1%; inhibition at 1 µM [3, 11]: 44.3%
CN1CC[C@]23c4c5ccc(O)c4O[C@H]2[C@@H](O)C=C[C@H]3[C@H]1C5 [morphine, reference compound] |  |  |  |  |  |  | about 43% | time of maximum antinociception (peak activity) ([2]; oral, 56 mg/kg): about 20 minutes; time of maximum antinociception (peak activity) ([2]; oral, 56 mg/kg, listed as Morphine): twenty; A50 (dose that resulted in a 50% antinociceptive effect), with 95% CI ([2]; orally administered, 52° C. tail flick): 61.8 (52.4-72.9) mg/kg
COc1ccc(OCC(O)CN2CCN(Cc3ccccc3)CC2)cc1 (centres unmarked) [Compound A0073] | 201.7 | 185.8 | 325.7 | 344.7 | 100.5 | 103.7 |  | inhibition at 0.01 µM [3, 6]: 47.3%; inhibition at 0.1 µM [3, 7]: 54.8%; inhibition at 1 µM [3, 8]: 59.7%
O=C1CC[C@@]2(O)[C@H]3Cc4ccc(O)c5c4[C@@]2(CCN3CC2CC2)[C@H]1O5 [NTX, naltrexone] |  |  |  |  |  |  |  | Kd [5]: ~4 pM
CC1CCC(C(C)C)C(OCC(O)CN2CCOc3ccccc32)C1 (centres unmarked) [Compound A0066] | 151.9 | 59.2 | 195.6 | 171.6 | 88.3 | 89.0 |  | inhibition at 0.01 µM [3, 9]: 36.7%; inhibition at 0.1 µM [3, 10]: 45.4%; inhibition at 1 µM [3, 11]: 53.7%
CC1CCCC(OCC(O)CN2CC(C)OC(C)C2)C1 (centres unmarked) [Compound A0021] | 133.3 | 12.1 | 275.3 |  |  |  | about 25% | 
